{"source": "patent US10251874B2", "about": "“Crystalline forms of a JAK inhibitor compound” (THERAVANCE BIOPHARMA R&D IP, LLC, priority 2017, dated 2019)", "type_in_all_cases": "cell-based", "key": {"[1]": {"test_system": "IL-2, IL-4, IL-6, and IFNγ signaling", "assay": "Cellular assays of Assays 3 to 7 (summary statement)", "details": "Homo sapiens, summary over cellular Assays 3 to 7"}, "[2]": {"test_system": "IFNγ induced CXCL9 secretion in EpiAirway tissue cultures", "assay": "Assay 15: IFNγ induced CXCL9 in human 3D airway cultures", "details": "192 h, Day 8, average from 3 or 4 donors, read-out: % inhibition of IFNγ induced CXCL9 secretion (±STDV)", "procedure": "EpiAirway tissue cultures were obtained from Mattek (AIR-100). Cultures were derived from asthmatic donors. In a cell culture insert, human derived tracheal/bronchial epithelial cells were grown and differentiated on a porous membrane support, allowing an air-liquid interface with warmed culture medium below the cells and a gaseous test atmosphere above. Tissues were cultured in maintenance media (Mattek, AIR-100-MM) in a 37° C., 5% CO2 humidified incubator. Four donors were tested. On Day 0, tissue cultures were treated with test compounds at 10 μM, 1 μM and/or 0.1 μM. Compounds were diluted in dimethyl sulfoxide (DMSO, Sigma) to a final concentration of 0.1%. DMSO at 0.1% was used as a vehicle control. Test compounds were incubated with cultures for 1 hour at 37° C., 5% CO2, followed by the addition of pre-warmed media containing IFNγ (R&D Systems) or IL-27 (R&D Systems) at a final concentration at 100 ng/ml. Tissue cultures were maintained for 8 days. Media was replaced every 2 days with fresh media containing compounds and IFNγ or IL-27. On Day 8, tissue cultures and supernatants were collected for analysis. Supernatant samples were assayed for CXCL10 (IP-10) and CXCL9 (MIG) using luminex analysis (EMD Millipore). Data is expressed as % Inhibition +/−standard deviation (±STDV). Percent inhibition was determined by compound inhibitory potency against IFNγ or IL-27 induced CXCL10 or CXCL9 secretion compared to vehicle treated cells. Data is the average from 3 or 4 donors. Compound 1 was able to inhibit IFNγ induced CXCL10 secretion by 99%±2.0 (at 10 μM), 71%±19 (at […]) and 17%±12 (at 0.1 μM) when compared to vehicle control. Compound 1 was able to inhibit IFNγ induced CXCL9 secretion by 100%±0.3 (at 10 μM), 99%±0.9 (at 1 μM) and 74%±17 (at 0.1 μM) when compared to vehicle. […] Compound 1 was able to inhibit IL-27 induced CXCL9 secretion by 100%±0 (at 10 μM), 95%±3.7 (at 1 μM) and 75%±3.5 (at 0.1 μM) when compared to vehicle control."}, "[3]": {"test_system": "IFNγ-induced pSTAT1 in CD14+ monocytes", "assay": "Assay 7: Inhibition of IFNγ-induced pSTAT1 in CD14+ monocytes", "details": "Homo sapiens, Monocyte, flow cytometry, read-out: pIC50, inhibition of IFNγ-induced pSTAT1 (converted)", "procedure": "The potency of the test compound for inhibition of interferon gamma (IFNγ) stimulated STAT1 phosphorylation was measured in CD14-positive (CD14+) monocytes derived from human whole blood (Stanford Blood Center) using flow cytometry. Because IFNγ signals through JAK, this assay provides a measure of JAK cellular potency.\nMonocytes were identified using a fluorescein isothiocyanate (FITC) conjugated anti-CD14 antibody (Clone RM052, Beckman Coulter), and an Alexa Fluor 647 conjugated anti-pSTAT1 antibody (pY701, Clone 4a, BD Biosciences) was used to detect STAT1 phosphorylation.\nHuman peripheral blood mononuclear cells (PBMC) were isolated from human whole blood of healthy donors using a ficoll gradient. […] Cells were washed twice with FACS buffer, and then resuspended in 1:10 anti-pSTAT1 Alexa Fluor 647:FACS buffer (100 μL) for 30 min at RT in the dark, washed twice in FACS buffer, and analyzed using a LSRII flow cytometer (BD Biosciences).\nTo determine the inhibitory potency of the test compound, the median fluorescent intensity (MFI) of pSTAT1 was measured in CD14+ monocytes. IC50 values were determined from analysis of the inhibition curves of MFI vs compound concentration. Data are expressed as pIC50 (negative decadic logarithm IC50) values."}}, "note": "Like-named read-outs stand apart in the source and are kept apart here.", "data": [{"molecule": "CCc1cc(O)c(F)cc1-c1ccc2c(-c3nc4c([nH]3)CCN(C3CCN(C)CC3)C4)n[nH]c2c1", "note": "[Compound 1, 5-ethyl-2-fluoro-4-(3-(5-(1-methylpiperidin-4-yl)-4,5,6,7-tetrahydro-1H-imidazo[4,5-c]pyridin-2-yl)-1H-indazol-6-yl)phenol]", "values": [{"measurement": "IC50", "setting": "[1]; read-out: IC50 for inhibition of IL-2, IL-4, IL-6, and IFNγ signaling", "result": "≤ 200", "unit": "nM"}, {"measurement": "IC50", "setting": "[1]; read-out: pIC50 for inhibition of IL-2, IL-4, IL-6, and IFNγ signaling (converted)", "result": "≤ 200", "unit": "nM"}, {"measurement": "inhibition at 0.1 µM", "setting": "[2]; at 0.1 μM", "result": 74, "unit": "%"}, {"measurement": "inhibition at 1 µM", "setting": "[2]; at 1 μM", "result": 99, "unit": "%"}, {"measurement": "inhibition at 10 µM", "setting": "[2]; at 10 μM", "result": 100, "unit": "%"}, {"measurement": "IC50", "setting": "[3]", "result": "~31.6", "unit": "nM"}]}]}
